Consider 2 compounds from ChEMBL document CHEMBL1201862, “PubChem BioAssay data set” (2004).

SMILES strings stand for the structures. Activity calls are given as the source filed them.

Test [1] deals with Serine/threonine-protein kinase Chk1 (Homo sapiens, UniProt O14757). It counts as functional.
Test [2] concerns the target Mitogen-activated protein kinase 1 (Homo sapiens, UniProt P28482). It counts as functional.
The target in test [3] is Testis-specific serine/threonine-protein kinase 2 (Homo sapiens, UniProt Q96PF2). It counts as functional.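 Also: part of the Navigating the Kinome panel, target entry STK22B.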
The target in test [4] is Mitogen-activated protein kinase 9 (Homo sapiens, UniProt P45984). It counts as functional.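 Also: value from a kinome panel profiling assay, MAPK9 panel entry.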
In the next test the target is T1, Exodeoxyribonuclease V (Escherichia coli (strain K12), UniProt P04993+P07648+P08394).
T1 sequence (P04993 whole entry): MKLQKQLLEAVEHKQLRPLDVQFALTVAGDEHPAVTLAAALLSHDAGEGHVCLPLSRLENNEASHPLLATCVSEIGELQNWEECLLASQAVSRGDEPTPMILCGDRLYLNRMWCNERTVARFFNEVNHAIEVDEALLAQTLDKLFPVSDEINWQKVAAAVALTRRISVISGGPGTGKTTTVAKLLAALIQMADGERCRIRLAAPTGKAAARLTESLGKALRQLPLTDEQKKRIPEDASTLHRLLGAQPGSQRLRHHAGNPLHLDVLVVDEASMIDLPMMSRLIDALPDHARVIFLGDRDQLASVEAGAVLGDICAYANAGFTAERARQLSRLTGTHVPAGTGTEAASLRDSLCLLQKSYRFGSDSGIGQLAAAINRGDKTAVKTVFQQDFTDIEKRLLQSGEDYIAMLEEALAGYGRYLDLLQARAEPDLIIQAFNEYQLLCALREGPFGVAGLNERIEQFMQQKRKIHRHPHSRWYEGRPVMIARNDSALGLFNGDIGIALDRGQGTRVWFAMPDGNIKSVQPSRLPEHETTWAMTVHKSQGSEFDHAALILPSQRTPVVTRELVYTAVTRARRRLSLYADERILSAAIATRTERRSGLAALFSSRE
T1 sequence (P07648 whole entry): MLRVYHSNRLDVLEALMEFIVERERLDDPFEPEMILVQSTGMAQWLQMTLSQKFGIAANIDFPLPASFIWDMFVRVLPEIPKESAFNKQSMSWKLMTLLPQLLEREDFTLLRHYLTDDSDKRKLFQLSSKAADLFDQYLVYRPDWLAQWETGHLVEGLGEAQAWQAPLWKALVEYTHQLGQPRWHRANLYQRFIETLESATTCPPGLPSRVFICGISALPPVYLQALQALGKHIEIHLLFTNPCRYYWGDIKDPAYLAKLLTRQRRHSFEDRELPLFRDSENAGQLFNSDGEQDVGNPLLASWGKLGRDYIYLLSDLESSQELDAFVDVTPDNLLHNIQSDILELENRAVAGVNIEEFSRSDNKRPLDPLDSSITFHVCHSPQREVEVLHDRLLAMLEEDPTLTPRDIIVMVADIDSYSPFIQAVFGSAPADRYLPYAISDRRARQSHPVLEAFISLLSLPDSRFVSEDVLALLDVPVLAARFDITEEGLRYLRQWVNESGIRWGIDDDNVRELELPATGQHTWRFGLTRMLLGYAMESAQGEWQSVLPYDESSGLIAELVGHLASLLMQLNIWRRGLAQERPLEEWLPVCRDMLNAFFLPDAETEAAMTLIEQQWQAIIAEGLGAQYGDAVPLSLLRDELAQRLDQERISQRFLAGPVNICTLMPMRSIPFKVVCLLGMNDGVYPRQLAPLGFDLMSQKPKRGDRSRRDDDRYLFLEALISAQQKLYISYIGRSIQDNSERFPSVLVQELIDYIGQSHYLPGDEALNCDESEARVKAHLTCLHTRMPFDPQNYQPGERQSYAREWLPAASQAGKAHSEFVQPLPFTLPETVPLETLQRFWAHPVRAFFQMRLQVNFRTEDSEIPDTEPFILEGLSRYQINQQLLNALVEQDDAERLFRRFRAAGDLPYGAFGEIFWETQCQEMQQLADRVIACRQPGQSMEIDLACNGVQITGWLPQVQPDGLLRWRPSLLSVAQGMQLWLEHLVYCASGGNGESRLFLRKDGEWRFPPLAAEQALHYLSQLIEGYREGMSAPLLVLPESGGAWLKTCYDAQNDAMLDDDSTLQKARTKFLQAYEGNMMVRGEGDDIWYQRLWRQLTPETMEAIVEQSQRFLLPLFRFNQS
T1 sequence (P08394 whole entry): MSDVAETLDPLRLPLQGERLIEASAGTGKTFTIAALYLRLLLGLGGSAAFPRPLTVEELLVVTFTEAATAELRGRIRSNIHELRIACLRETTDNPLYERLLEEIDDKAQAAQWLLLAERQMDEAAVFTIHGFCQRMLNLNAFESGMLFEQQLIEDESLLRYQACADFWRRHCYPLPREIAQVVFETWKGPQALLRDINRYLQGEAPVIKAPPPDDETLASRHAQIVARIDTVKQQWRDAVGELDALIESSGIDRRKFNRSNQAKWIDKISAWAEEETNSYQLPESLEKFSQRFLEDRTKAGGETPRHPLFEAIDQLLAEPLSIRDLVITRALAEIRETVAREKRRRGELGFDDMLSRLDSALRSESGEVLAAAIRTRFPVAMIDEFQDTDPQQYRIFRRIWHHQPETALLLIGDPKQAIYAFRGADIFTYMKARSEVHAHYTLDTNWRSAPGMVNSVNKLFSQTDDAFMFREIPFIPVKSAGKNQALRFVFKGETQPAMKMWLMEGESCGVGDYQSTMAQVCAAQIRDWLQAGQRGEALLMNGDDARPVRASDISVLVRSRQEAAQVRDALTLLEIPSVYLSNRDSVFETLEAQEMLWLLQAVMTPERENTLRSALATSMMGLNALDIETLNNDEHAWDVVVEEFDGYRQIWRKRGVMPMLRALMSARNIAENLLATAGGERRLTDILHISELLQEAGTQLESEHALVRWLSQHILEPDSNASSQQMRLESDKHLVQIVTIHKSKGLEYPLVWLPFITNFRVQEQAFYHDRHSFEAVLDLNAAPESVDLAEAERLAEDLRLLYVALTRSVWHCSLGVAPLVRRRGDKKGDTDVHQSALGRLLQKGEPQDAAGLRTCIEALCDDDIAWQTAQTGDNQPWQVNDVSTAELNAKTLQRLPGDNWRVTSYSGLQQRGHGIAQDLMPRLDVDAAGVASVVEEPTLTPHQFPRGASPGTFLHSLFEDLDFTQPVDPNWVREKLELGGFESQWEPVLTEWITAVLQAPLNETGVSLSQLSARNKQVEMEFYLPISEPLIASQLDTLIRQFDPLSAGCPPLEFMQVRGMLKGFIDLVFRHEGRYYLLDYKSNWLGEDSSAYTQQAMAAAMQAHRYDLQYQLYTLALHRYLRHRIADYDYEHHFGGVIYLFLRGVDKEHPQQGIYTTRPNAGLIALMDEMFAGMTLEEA
The experiment in a line: E. coli RecBCD inhibitors, dose response, counter-screen for AddAB inhibitor project, absorbance, V66 E. coli, mutant T4 phage (AID 492957). It counts as functional, cell-based, Escherichia coli str. K-12 substr. MG1655. Background: The purpose of a counterscreen is to sort out artefacts and off-target activity.

Mitogen-activated protein kinase 1, sequence (P28482 whole entry): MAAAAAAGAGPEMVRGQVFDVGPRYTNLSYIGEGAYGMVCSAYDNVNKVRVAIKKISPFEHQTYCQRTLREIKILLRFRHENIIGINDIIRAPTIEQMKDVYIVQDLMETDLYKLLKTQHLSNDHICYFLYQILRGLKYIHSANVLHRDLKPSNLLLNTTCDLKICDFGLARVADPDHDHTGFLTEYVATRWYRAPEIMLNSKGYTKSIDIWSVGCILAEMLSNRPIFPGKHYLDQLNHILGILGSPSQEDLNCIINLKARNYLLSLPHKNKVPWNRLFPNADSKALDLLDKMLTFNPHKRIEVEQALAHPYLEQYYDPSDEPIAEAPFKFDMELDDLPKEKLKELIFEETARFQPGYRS
Mitogen-activated protein kinase 9, sequence (P45984 whole entry): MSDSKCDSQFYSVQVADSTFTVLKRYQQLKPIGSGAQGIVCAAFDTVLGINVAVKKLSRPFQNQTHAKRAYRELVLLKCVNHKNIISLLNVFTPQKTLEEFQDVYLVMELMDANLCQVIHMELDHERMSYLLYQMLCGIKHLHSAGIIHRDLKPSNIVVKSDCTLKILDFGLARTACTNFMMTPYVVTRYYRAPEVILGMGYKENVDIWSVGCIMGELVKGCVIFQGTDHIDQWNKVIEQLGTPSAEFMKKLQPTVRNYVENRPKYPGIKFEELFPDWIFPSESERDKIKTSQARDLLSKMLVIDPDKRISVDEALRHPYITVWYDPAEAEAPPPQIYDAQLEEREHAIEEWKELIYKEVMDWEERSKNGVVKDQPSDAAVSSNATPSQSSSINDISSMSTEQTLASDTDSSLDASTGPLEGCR
Testis-specific serine/threonine-protein kinase 2, sequence (Q96PF2 whole entry): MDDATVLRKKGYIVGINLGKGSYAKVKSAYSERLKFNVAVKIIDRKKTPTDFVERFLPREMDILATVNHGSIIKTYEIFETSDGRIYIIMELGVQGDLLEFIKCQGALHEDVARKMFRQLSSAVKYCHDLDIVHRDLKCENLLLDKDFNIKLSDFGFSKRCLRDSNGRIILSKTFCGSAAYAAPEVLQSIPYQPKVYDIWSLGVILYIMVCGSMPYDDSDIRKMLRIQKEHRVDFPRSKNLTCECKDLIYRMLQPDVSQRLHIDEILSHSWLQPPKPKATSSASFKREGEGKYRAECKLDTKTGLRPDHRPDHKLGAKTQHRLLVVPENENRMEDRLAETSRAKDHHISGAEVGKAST
Serine/threonine-protein kinase Chk1, sequence (O14757 whole entry): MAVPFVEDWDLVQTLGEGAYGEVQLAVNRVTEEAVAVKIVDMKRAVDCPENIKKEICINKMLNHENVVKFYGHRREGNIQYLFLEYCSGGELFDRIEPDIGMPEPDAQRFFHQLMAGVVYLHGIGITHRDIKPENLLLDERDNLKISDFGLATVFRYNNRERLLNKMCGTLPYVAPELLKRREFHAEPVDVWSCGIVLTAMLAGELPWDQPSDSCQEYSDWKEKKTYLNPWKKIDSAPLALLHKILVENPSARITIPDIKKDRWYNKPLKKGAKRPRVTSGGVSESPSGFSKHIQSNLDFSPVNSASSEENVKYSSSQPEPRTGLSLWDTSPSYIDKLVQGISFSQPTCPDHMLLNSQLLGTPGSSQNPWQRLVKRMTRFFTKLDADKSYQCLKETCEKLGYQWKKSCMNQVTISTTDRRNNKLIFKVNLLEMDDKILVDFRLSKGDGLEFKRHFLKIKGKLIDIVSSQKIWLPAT

As for `OC1CCC(Nc2cc(Cl)nc(-c3c[nH]c4ncccc34)n2)CC1` (stereo not given), the inhibition constant (Ki) is 1 µM (active) in test [1], > 5.01 µM (inactive) in test [2], > 1 µM (inactive) in test [3] and 3.16 µM (active) in test [4].

For `COCC/N=c1\scc(-c2cccs2)n1/N=C/c1ccc(O)c(O)c1O`, the IC50 on Exodeoxyribonuclease V is > 119 µM (inactive).

A word on the Ki: it is a measure of affinity in units of concentration, obtained from inhibition or displacement. The IC50 is the concentration that gives 50% inhibition.
